Test results as given in patent US7880007B2, “Bicyclic substituted phenyl piperidine modulators of muscarinic receptors” (Vertex Pharmaceuticals Incorporated, priority 2004, dated 2011).

Tests used:
Type in all cases: cell-based
[1] = target: T1, M1 muscarinic receptor (Homo sapiens, UniProt P11229); test: Functional mobilization of intracellular calcium (FLIPR), M1-CHO cells; conditions: for M1 Activity: M1-CHO cells, calcium mobilization (FLIPR)
T1 construct: expressed in transfected cells; host or cells: CHO (M1-CHO)
T1 sequence (P11229 1-460): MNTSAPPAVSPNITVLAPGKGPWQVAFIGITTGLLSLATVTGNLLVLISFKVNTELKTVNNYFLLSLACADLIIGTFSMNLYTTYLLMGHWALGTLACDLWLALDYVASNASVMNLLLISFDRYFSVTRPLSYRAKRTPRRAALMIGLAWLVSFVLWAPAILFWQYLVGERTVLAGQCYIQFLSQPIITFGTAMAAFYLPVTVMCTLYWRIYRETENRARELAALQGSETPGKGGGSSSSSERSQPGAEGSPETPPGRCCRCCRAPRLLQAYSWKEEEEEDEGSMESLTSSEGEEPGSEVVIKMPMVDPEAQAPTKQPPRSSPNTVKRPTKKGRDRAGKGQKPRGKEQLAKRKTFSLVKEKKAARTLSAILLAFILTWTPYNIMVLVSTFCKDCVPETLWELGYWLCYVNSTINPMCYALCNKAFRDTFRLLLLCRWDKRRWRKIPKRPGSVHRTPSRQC
In short: (§1)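 CHO cells expressing human M1–M4 receptors loaded with Fluo-3 AM or Calcium 3 dye (1 mM probenecid, pH 7.4); 0.5% DMSO final. Agonist mode: compound added directly; antagonist mode: 15 min pre-incubation or co-application, then carbachol at EC80. Fluorescence read 60 s on FLIPR; efficacy relative to carbachol maximum.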

[2] = target: T2, M3 muscarinic receptor (Homo sapiens, UniProt P20309); test: Functional mobilization of intracellular calcium (FLIPR), M3-CHO cells; conditions: for M3 Activity: M3-CHO cells, calcium mobilization (FLIPR)
T2 construct: expressed in transfected cells; host or cells: CHO (M3-CHO)
T2 sequence (P20309 whole entry): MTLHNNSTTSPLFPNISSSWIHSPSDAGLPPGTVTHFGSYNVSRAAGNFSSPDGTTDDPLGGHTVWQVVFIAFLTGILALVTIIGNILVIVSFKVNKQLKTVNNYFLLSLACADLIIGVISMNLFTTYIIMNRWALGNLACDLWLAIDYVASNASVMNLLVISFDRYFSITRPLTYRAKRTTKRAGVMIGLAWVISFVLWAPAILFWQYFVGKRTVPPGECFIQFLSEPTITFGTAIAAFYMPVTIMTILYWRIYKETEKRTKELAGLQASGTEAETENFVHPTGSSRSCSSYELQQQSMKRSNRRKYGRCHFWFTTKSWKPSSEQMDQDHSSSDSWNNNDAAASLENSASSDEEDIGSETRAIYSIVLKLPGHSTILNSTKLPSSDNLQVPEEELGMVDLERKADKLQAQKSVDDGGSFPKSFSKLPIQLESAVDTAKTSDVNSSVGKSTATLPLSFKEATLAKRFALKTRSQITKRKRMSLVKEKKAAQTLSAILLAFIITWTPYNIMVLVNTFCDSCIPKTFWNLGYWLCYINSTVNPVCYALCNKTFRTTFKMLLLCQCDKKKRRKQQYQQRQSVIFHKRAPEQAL
In short: as §1

[3] = target: T3, M4 muscarinic receptor (Homo sapiens, UniProt P08173); test: Functional mobilization of intracellular calcium (FLIPR), M4-CHO cells; conditions: for M4 Activity: M4-CHO cells, calcium mobilization (FLIPR)
T3 construct: expressed in transfected cells; host or cells: CHO (M4-CHO)
T3 sequence (P08173 1-479): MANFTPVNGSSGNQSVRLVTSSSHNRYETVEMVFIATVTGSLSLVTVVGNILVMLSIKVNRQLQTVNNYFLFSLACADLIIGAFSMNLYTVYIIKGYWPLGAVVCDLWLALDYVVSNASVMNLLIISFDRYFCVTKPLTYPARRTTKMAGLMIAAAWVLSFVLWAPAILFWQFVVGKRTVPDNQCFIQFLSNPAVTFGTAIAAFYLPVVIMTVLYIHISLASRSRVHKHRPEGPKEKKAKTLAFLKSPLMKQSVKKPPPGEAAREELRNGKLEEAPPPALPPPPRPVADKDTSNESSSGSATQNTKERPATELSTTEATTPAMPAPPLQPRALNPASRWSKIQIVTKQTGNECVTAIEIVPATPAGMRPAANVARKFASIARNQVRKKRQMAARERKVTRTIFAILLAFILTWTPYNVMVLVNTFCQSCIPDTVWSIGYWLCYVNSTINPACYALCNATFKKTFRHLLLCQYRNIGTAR
In short: as §1

[4] = target: T4, M2 muscarinic receptor (Homo sapiens, UniProt P08172); test: Functional mobilization of intracellular calcium (FLIPR), M2-CHO cells; conditions: for M2 Activity: M2-CHO cells, calcium mobilization (FLIPR)
T4 construct: expressed in transfected cells; host or cells: CHO (M2-CHO)
T4 sequence (P08172 1-466): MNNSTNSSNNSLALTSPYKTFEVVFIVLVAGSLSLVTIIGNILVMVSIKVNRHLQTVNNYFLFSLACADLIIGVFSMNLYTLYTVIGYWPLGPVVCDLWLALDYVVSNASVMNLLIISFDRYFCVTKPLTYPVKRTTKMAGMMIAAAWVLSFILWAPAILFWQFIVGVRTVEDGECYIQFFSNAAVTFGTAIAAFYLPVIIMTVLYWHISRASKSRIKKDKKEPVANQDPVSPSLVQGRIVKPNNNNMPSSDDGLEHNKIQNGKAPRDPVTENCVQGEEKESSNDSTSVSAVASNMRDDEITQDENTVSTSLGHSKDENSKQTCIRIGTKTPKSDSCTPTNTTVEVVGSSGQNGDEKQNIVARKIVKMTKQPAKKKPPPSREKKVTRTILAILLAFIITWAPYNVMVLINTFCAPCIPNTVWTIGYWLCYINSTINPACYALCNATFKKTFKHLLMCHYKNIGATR
In short: as §1

[5] = 100% efficacy is the maximum response obtained with the Carbachol control

SMILES | Emax [1, 5] [%] | M1 Activity [1] | Emax [2, 5] [%] | M3 Activity [2] | Emax [3, 5] [%] | M4 Activity [3] | Emax [4, 5] [%] | M2 Activity [4] | M1 Efficacy [1, 5] | M3 Efficacy [2, 5] | M4 Efficacy [3, 5] | M2 Efficacy [4, 5]
CCOC(=O)N1C2CCC1CC(N1CCC(OC)(c3cc(Cl)ccc3OC)CC1)C2 (stereo not drawn) [Compound 390] | 25 to 100 | +++ (activity was measured to be less than 1.0 μM) | < 25 | + (activity was measured to be greater than 5.0 μM) | 25 to 100 | +++ (activity was measured to be less than 1.0 μM) | < 25 | + (activity was measured to be greater than 5.0 μM) | – | – | – | –
O=C(NCc1cccc(C2CCN(C3C[C@H]4CC[C@H]3C4)CC2)c1)C1CC1 (stereo partly drawn) [Compound 391] | < 25 | + (activity was measured to be greater than 5.0 μM) | < 25 | + (activity was measured to be greater than 5.0 μM) | < 25 | + (activity was measured to be greater than 5.0 μM) | < 25 | + (activity was measured to be greater than 5.0 μM) | – | – | – | –
CCOC(=O)N1CCC(N2CCC(c3cc(Cl)ccc3OC)CC2)CC1 [Compound 392] | 25 to 100 | +++ (activity was measured to be less than 1.0 μM) | 25 to 100 | +++ (activity was measured to be less than 1.0 μM) | 25 to 100 | +++ (activity was measured to be less than 1.0 μM) | 25 to 100 | +++ (activity was measured to be less than 1.0 μM) | – | – | – | –
COc1ccc(-c2ccc(OC)c(C3CCN([C@@H]4C[C@H]5CC[C@H]4C5)CC3)c2)cc1 [Compound 393] | < 25 | + (activity was measured to be greater than 5.0 μM) | < 25 | + (activity was measured to be greater than 5.0 μM) | 25 to 100 | + (activity was measured to be greater than 5.0 μM) | < 25 | + (activity was measured to be greater than 5.0 μM) | – | – | – | –
COc1ccc(Cl)cc1C1(O)CCN(C[C@H]2C[C@H]3C=C[C@H]2C3)CC1 [Compound 394] | < 25 | + (activity was measured to be greater than 5.0 μM) | < 25 | + (activity was measured to be greater than 5.0 μM) | 25 to 100 | +++ (activity was measured to be less than 1.0 μM) | 25 to 100 | + (activity was measured to be greater than 5.0 μM) | – | – | – | –
Clc1cccc(-c2ccccc2C2CCN([C@H]3C[C@H]4CC[C@H]3C4)CC2)c1 [Compound 395] | < 25 | + (activity was measured to be greater than 5.0 μM) | < 25 | + (activity was measured to be greater than 5.0 μM) | 25 to 100 | + (activity was measured to be greater than 5.0 μM) | < 25 | + (activity was measured to be greater than 5.0 μM) | – | – | – | –
COc1ccc(Cl)cc1C1CCN(C2CCC(=NOCc3ccccc3)CC2)CC1 (stereo not drawn) [Compound 396] | – | + (activity was measured to be greater than 5.0 μM) | – | + (activity was measured to be greater than 5.0 μM) | – | +++ (activity was measured to be less than 1.0 μM) | – | + (activity was measured to be greater than 5.0 μM) | ++ (efficacy was calculated to be from 100% to 25%) | + (efficacy was calculated to be less than 25%) | ++ (efficacy was calculated to be from 100% to 25%) | + (efficacy was calculated to be less than 25%)
COc1ccccc1C1CCN(C2CCCC(C)C2)CC1 (stereo not drawn) [Compound 398] | 25 to 100 | + (activity was measured to be greater than 5.0 μM) | < 25 | + (activity was measured to be greater than 5.0 μM) | 25 to 100 | +++ (activity was measured to be less than 1.0 μM) | < 25 | + (activity was measured to be greater than 5.0 μM) | – | – | – | –
COc1ccc(-c2ccc(CC#N)cc2)cc1C1CCN(C2CCCCC2)CC1 [Compound 399] | < 25 | + (activity was measured to be greater than 5.0 μM) | < 25 | + (activity was measured to be greater than 5.0 μM) | 25 to 100 | ++ (activity was measured to be from 1.0 μM to 5.0 μM) | < 25 | + (activity was measured to be greater than 5.0 μM) | – | – | – | –
COc1ccc(-c2ccc(NC(C)=O)cc2)cc1C1CCN([C@H]2C[C@H]3CC[C@H]2C3)CC1 [Compound 400] | < 25 | + (activity was measured to be greater than 5.0 μM) | < 25 | + (activity was measured to be greater than 5.0 μM) | < 25 | + (activity was measured to be greater than 5.0 μM) | < 25 | + (activity was measured to be greater than 5.0 μM) | – | – | – | –
COc1ccc(-c2ccc(C(=O)NC3CC3)cc2)cc1C1CCN([C@H]2C[C@H]3CC[C@H]2C3)CC1 [Compound 401] | < 25 | + (activity was measured to be greater than 5.0 μM) | < 25 | + (activity was measured to be greater than 5.0 μM) | < 25 | + (activity was measured to be greater than 5.0 μM) | < 25 | + (activity was measured to be greater than 5.0 μM) | – | – | – | –
COc1cccc(-c2ccccc2C2CCN([C@H]3C[C@H]4CC[C@H]3C4)CC2)c1OC [Compound 402] | < 25 | + (activity was measured to be greater than 5.0 μM) | < 25 | + (activity was measured to be greater than 5.0 μM) | 25 to 100 | ++ (activity was measured to be from 1.0 μM to 5.0 μM) | < 25 | + (activity was measured to be greater than 5.0 μM) | – | – | – | –
